≈ marks a conversion by molar mass, not a printed value.
Tests used:
[1] = Cmax in C57BL/6 mouse plasma at 2.32 mg/kg, iv; type: ADME, organism-based; design: route intravenous, dose 2.32 mg/kg
Cytochrome P450 2C9 = Cytochrome P450 2C9 (Homo sapiens, UniProt P11712); experiment: Inhibition of CYP2C9 in human liver microsomes incubated for 15 mins in presence of NADPH by LC-MS/MS analysis; type: ADME
[2] = Drug concentration in Sprague-Dawley rat at 3 mg/kg, po after 6 hrs by LC-MS/MS analysis; type: ADME, organism-based; conditions: in vivo, read-out: Drug uptake
[3] = Cmax in C57BL/6 mouse brain at 10 mg/kg, po; type: ADME, organism-based; design: route oral, dose 10 mg/kg
[4] = Cmax in dog at 1.0 mg/kg, po; type: ADME, organism-based, Canis lupus familiaris; design: route oral, dose 1 mg/kg; conditions: in vivo
Rattus norvegicus [5] = experiment: Effect on Sprague-Dawley rat CFA inflammatory […] model assessed as reduction in 20:4 LPA level at 0.3 mg/kg after 6 hrs by LC-MS/MS analysis; type: functional; design: scale not given: the % may be the effect or the level left
[6] = Clearance in cynomolgus monkey at 0.2 mg/kg, iv; type: ADME, organism-based, Macaca fascicularis; conditions: in vivo
[7] = molecular target: Sphingosine 1-phosphate receptor 2 (Homo sapiens, UniProt O95136); experiment: Inhibition of S1P2 (unknown origin)
[8] = AUC (0 to 24 hrs) in rat at 1 mg/kg, iv; type: ADME, organism-based; design: time < 24 hr, route intravenous, dose 1 mg/kg; conditions: in vivo
[9] = Cmax in C57BL/6 mouse brain at 2.32 mg/kg, iv; type: ADME, organism-based; design: route intravenous, dose 2.32 mg/kg
[10] = Half life in C57BL/6 mouse plasma at 2.32 mg/kg; type: ADME, organism-based
[11] = Solubility of the compound at pH 7.0 by shake flask method; conditions: buffer
[12] = Apparent permeability across apical to basolateral side in human Caco-2 cells incubated for 120 mins by lucifer yellow based LC-MS/MS analysis
[13] = Tmax in rat at 10 mg/kg, po; type: ADME, organism-based; conditions: in vivo
[14] = Volume of distribution at steady state in dog at 0.2 mg/kg, iv; type: ADME, organism-based, Canis lupus familiaris; conditions: in vivo, read-out: Vdss
[15] = Unbound Cmax in C57BL/6 mouse brain at 10 mg/kg, po; type: ADME, organism-based; conditions: in vivo
[16] = AUC (0 to 24 hrs) in rat at 10 mg/kg, po; type: ADME, organism-based; design: time < 24 hr, route oral, dose 10 mg/kg; conditions: in vivo
[17] = molecular target: T1, Sphingosine 1-phosphate receptor 4 (Homo sapiens, UniProt O95977); experiment: Inhibition of S1P4 (unknown origin)
T1 sequence (O95977 whole entry): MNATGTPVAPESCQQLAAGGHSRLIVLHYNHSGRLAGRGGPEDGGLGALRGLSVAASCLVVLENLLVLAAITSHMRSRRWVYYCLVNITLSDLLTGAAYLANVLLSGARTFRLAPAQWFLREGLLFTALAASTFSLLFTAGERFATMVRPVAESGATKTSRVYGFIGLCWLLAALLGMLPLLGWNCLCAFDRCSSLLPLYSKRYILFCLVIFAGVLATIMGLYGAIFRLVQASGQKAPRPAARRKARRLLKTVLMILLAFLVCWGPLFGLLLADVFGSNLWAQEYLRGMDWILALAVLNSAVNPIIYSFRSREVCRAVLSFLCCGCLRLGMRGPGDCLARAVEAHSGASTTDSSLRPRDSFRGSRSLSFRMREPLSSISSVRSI

[18] = Clearance in dog at 0.2 mg/kg, iv; type: ADME, organism-based, Canis lupus familiaris; conditions: in vivo
[19] = AUC (0 to 24 hrs) in C57BL/6 mouse plasma at 2.32 mg/kg; type: ADME, organism-based; design: time < 24 hr, dose 2.32 mg/kg
[20] = Drug concentration in Sprague-Dawley rat at 0.1 mg/kg, po after 6 hrs by LC-MS/MS analysis; type: ADME, organism-based; conditions: in vivo, read-out: Drug uptake
[21] = Drug concentration in Sprague-Dawley rat at 0.3 mg/kg, po after 6 hrs by LC-MS/MS analysis; type: ADME, organism-based; conditions: in vivo, read-out: Drug uptake
[22] = Apparent permeability across basolateral to apical side in human Caco-2 cells incubated for 120 mins by lucifer yellow based LC-MS/MS analysis
[23] = molecular target: T2, Lysophosphatidic acid receptor 3 (Homo sapiens, UniProt Q9UBY5); experiment: Inhibition of LPA3 (unknown origin)
T2 sequence (Q9UBY5 whole entry): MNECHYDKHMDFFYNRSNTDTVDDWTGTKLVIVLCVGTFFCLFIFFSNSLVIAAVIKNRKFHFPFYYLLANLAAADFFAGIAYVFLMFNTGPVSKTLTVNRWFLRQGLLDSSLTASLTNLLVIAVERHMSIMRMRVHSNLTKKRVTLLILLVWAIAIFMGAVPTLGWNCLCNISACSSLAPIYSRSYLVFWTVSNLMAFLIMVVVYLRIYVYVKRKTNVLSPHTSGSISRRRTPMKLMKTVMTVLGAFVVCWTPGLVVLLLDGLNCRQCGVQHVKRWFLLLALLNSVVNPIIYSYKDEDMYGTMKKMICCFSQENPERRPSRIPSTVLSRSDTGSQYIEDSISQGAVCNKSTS

[24] = Cmax in cynomolgus monkey at 1.0 mg/kg, po; type: ADME, organism-based, Macaca fascicularis; design: route oral, dose 1 mg/kg; conditions: in vivo
[25] = Clearance in C57BL/6 mouse plasma at 2.32 mg/kg; type: ADME, organism-based
[26] = Tmax in dog at 1.0 mg/kg, po; type: ADME, organism-based, Canis lupus familiaris; conditions: in vivo
[27] = Half life in rat at 1.0 mg/kg, iv; type: ADME, organism-based; conditions: in vivo
[28] = molecular target: Lysophosphatidic acid receptor 2 (Homo sapiens, UniProt Q9HBW0); experiment: Inhibition of LPA2 (unknown origin)
[29] = Protein binding in human plasma assessed as unbound fraction at 2 uM by rapid equilibrium dialysis method; type: ADME, cell-free
[30] = Half life in cynomolgus monkey at 0.2 mg/kg, iv; type: ADME, organism-based, Macaca fascicularis; conditions: in vivo
[31] = Cmax in C57BL/6 mouse plasma at 10 mg/kg, po; type: ADME, organism-based; design: route oral, dose 10 mg/kg
Cytochrome P450 2D6 = Cytochrome P450 2D6 (Homo sapiens, UniProt P10635); experiment: Inhibition of CYP2D6 in human liver microsomes incubated for 15 mins in presence of NADPH by LC-MS/MS analysis; type: ADME
[32] = molecular target: Sphingosine 1-phosphate receptor 1 (Homo sapiens, UniProt P21453); experiment: Inhibition of S1P1 (unknown origin)
Rattus norvegicus [33] = experiment: Effect on po dosed Sprague-Dawley rat CFA inflammatory pain model assessed as reduction in LPA level administered day 2 post CFA challenge and measured after 6 hrs by LC-MS/MS analysis; conditions: dose 0.1-10 mg/kg
[34] = Protein binding in C57BL/6 mouse plasma assessed as unbound fraction; type: ADME, cell-free
[35] = Clearance in rat at 1.0 mg/kg, iv; type: ADME, organism-based; conditions: in vivo, time <=24 hrs
Autotaxin = Autotaxin (Homo sapiens, UniProt Q13822); experiment: Inhibition of human ATX assessed as reduction in LPA formation using FS-3 as substrate preincubated for 30 mins followed by substrate addition and measured after 2 hrs by FRET assay
hERG (KCNH2) = hERG (KCNH2) (Homo sapiens, UniProt Q12809); experiment: Inhibition of human ERG at 1 uM by automated patch-clamp assay relative to control
Rattus norvegicus [36] = experiment: Effect on Sprague-Dawley rat CFA inflammatory […] model assessed as reduction in 20:4 LPA level at 10 mg/kg, po after 6 hrs by LC-MS/MS analysis; type: functional; design: scale not given: the % may be the effect or the level left
[37] = Oral bioavailability in cynomolgus monkey at 1.0 mg/kg; type: ADME, organism-based, Macaca fascicularis; conditions: in vivo
[38] = Protein binding in rat plasma assessed as unbound fraction; type: ADME, cell-free
[39] = Cmax in rat at 10 mg/kg, po; type: ADME, organism-based; design: route oral, dose 10 mg/kg; conditions: in vivo

Sphingosine 1-phosphate receptor 1, sequence (P21453 whole entry): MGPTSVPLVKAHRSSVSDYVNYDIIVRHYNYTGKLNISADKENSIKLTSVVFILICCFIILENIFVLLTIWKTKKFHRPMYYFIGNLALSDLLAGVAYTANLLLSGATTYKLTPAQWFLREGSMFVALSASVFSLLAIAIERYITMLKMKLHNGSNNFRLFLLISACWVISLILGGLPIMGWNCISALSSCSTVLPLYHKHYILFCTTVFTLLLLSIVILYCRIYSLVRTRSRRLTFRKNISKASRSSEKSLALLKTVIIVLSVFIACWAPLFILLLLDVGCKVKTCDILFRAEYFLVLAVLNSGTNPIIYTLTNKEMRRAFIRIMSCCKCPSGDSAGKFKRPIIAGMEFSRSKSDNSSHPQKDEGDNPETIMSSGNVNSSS
Lysophosphatidic acid receptor 2, sequence (Q9HBW0 whole entry): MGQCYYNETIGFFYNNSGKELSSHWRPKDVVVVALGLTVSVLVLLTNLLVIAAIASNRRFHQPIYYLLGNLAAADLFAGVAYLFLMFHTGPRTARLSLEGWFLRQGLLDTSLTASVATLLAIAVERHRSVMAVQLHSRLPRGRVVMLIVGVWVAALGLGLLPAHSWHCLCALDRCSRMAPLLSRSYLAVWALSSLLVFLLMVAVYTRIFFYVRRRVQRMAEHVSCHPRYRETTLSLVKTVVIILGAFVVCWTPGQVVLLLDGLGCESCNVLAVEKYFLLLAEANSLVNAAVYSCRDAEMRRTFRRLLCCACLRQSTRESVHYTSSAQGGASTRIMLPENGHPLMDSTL
hERG (KCNH2), sequence (Q12809 whole entry): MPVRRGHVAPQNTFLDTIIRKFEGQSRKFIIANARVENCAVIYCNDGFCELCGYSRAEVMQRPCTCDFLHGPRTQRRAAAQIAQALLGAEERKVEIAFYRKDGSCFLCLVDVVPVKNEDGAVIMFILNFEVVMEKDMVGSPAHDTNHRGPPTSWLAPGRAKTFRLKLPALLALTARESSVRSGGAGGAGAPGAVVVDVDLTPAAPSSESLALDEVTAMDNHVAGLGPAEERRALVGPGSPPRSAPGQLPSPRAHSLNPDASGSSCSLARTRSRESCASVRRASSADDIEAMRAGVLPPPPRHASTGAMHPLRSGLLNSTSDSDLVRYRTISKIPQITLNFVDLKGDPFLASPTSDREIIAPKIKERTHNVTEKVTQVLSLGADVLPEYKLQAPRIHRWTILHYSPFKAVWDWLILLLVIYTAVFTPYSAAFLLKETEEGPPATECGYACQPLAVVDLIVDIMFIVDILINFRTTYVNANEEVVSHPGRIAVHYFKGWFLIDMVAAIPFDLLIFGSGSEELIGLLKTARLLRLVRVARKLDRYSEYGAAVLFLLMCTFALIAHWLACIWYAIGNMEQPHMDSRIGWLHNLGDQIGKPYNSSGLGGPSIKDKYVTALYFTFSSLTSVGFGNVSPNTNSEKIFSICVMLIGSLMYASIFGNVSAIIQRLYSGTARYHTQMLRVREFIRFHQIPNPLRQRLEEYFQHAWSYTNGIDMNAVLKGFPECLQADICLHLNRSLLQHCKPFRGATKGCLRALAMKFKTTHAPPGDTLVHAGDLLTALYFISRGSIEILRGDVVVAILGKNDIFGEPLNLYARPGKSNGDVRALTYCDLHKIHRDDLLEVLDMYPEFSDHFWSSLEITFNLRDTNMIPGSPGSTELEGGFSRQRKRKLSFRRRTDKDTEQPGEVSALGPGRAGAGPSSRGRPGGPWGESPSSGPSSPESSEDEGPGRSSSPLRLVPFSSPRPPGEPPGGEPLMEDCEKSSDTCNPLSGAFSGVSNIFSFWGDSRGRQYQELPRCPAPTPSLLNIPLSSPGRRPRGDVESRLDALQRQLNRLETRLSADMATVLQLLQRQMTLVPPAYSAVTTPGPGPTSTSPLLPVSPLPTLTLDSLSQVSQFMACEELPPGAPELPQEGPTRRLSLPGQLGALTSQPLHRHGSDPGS
Cytochrome P450 2D6, sequence (P10635 whole entry): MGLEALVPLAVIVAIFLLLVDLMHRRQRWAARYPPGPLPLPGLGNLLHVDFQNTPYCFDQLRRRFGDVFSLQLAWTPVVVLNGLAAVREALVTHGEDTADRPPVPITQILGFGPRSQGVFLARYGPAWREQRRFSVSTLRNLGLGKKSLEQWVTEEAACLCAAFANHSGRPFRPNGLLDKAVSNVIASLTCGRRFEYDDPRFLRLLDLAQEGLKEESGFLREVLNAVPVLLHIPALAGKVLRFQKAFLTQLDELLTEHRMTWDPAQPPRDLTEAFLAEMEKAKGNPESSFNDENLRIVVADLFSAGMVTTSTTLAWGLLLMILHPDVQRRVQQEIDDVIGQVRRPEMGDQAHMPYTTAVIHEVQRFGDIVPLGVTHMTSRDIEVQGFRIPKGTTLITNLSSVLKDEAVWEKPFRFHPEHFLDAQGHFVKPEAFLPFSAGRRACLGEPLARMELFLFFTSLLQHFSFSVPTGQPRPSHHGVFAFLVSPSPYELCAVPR
Sphingosine 1-phosphate receptor 2, sequence (O95136 whole entry): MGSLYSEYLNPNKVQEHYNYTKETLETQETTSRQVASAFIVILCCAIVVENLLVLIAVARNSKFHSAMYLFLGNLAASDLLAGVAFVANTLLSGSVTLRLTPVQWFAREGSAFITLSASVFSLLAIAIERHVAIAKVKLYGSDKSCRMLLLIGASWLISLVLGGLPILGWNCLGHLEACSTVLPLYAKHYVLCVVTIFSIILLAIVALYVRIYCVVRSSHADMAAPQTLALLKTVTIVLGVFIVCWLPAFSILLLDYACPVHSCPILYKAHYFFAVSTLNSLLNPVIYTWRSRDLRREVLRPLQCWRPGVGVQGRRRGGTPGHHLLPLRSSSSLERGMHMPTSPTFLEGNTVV
Cytochrome P450 2C9, sequence (P11712 whole entry): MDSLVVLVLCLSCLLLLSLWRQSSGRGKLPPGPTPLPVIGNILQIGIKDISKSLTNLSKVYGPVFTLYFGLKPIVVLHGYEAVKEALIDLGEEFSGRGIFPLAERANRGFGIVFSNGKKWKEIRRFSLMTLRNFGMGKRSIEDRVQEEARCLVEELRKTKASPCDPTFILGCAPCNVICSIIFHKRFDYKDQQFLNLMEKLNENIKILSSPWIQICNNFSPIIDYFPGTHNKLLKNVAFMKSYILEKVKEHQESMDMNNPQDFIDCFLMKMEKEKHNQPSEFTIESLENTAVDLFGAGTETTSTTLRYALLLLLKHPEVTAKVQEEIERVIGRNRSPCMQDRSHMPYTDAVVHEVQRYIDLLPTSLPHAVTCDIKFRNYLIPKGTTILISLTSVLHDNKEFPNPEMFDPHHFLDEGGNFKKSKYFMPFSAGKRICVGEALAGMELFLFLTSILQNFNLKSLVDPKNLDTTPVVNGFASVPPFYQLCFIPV

## C[C@@H](c1ccc2ccc(O[C@H]3CC[C@@H](C(F)(F)F)CC3)c(C(F)(F)F)c2c1)N1C2CCC1CC(C(=O)O)C2 (stereo partly drawn)
[1]
  Cmax: 1270 ng/mL
Cytochrome P450 2C9
  IC50: > 10 µM
[2]
  concentration at 6 h: 42 ng/mL
[3]
  Cmax: 823 ng/mL
[4]
  Cmax: 376 ng/mL
Rattus norvegicus [5]
  Activity: 92%
[6]
  clearance: 9.3 mL/min/kg
[7]
  IC50: > 10 µM
[8]
  AUC(0-t) at 24 h: 594 ng·h/mL
[9]
  Cmax: 274 ng/mL
[10]
  half-life: 4.72 h
[11]
  solubility thermodynamic: 73.2 µg/mL (≈ 135 µM)
[12]
  Papp A→B at 2 h: 16.8 ×10⁻⁶ cm/s
[13]
  Tmax: 1.6 h
[14]
  Vd: 2 L/kg
[15]
  fCmax: 1.5 nM
[16]
  AUC(0-t) at 24 h: 3970 ng·h/mL
[17]
  IC50: > 10 µM
[18]
  clearance: 1.7 mL/min/kg
[19]
  AUC(0-t) at 24 h: 6170 ng·h/mL
[20]
  concentration at 6 h: 0.95 ng/mL
[21]
  concentration at 6 h: 4.3 ng/mL
[22]
  Papp B→A at 2 h: 40.3 ×10⁻⁶ cm/s
[23]
  IC50: > 10 µM
[24]
  Cmax: 89 ng/mL
[25]
  clearance: 6.09 mL/min/kg
[26]
  Tmax: 2 h
[27]
  half-life: 3 h
[28]
  IC50: > 10 µM
[29]
  Fu: 0.66%
[30]
  half-life: 4 h
[31]
  Cmax: 1070 ng/mL
Cytochrome P450 2D6
  IC50: > 10 µM
[32]
  IC50: > 10 µM
Rattus norvegicus [33]
  Activity: Dose-Dependent Effect
[34]
  Fu: 0.599%
[35]
  clearance: 29 mL/min/kg
Autotaxin
  IC50: 0.001 µM
hERG (KCNH2)
  inhibition at 1 µM: 1.4%
Rattus norvegicus [36]
  Activity: 48%
[37]
  bioavailability: 34%
[38]
  Fu: 0.45%
[39]
  Cmax: 813 ng/mL

Source: ChEMBL document CHEMBL4825722, “Discovery of Potent Selective Nonzinc Binding Autotaxin Inhibitor BIO-32546” (ACS Med Chem Lett, 2021)
